Test results reported in the supplement of paper PMC10307832.

Tests used:
Test in all cases: relative viability (nuclei count vs DMSO), 5 days (fraction); higher = more cells survive
[1] = compound: COc1cc2nc(N3CCCN(C)CC3)nc(NC3CCN(Cc4ccccc4)CC3)c2cc1OC + CS(=O)(=O)CCNCc1ccc(-c2ccc3ncnc(Nc4ccc(OCc5cccc(F)c5)c(Cl)c4)c3c2)o1 [Lapatinib] (partner 2 µM)
Summary of the method: (§1)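 Relative viability was taken as the ratio of nuclei in treated wells to nuclei in vehicle wells. Lung cancer cell lines in 1536-well plates received compounds by pin tool one day after seeding, either one drug alone or a fixed anchor-drug dose plus five library-drug doses (not always all listed) in √10 steps. Nuclei were counted on 4× images after 5 days of treatment, and values are medians of duplicate plates.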

AZD6482 + Olaparib = compound: Cc1cc([C@@H](C)Nc2ccccc2C(=O)O)c2nc(N3CCOCC3)cc(=O)n2c1 [AZD6482] + O=C(c1cc(Cc2n[nH]c(=O)c3ccccc23)ccc1F)N1CCN(C(=O)C2CC2)CC1 [Olaparib] (partner 8 µM)
Summary of the method: as §1

AZD6482 + Decitabine = compound: Cc1cc([C@@H](C)Nc2ccccc2C(=O)O)c2nc(N3CCOCC3)cc(=O)n2c1 [AZD6482] + Nc1ncn([C@H]2C[C@H](O)[C@@H](CO)O2)c(=O)n1 [Decitabine] (partner 2 µM)
Summary of the method: as §1

AZD6482 + Crizotinib = compound: Cc1cc([C@@H](C)Nc2ccccc2C(=O)O)c2nc(N3CCOCC3)cc(=O)n2c1 [AZD6482] + C[C@@H](Oc1cc(-c2cnn(C3CCNCC3)c2)cnc1N)c1c(Cl)ccc(F)c1Cl [Crizotinib] (partner 1 µM)
Summary of the method: as §1

Cell Line | relative viability ([1]; first compound 0.2 µM) | relative viability ([1]; first compound 0.6325 µM) | relative viability ([1]; first compound 2 µM) | relative viability ([1]; first compound 6.325 µM) | relative viability (AZD6482 + Olaparib; first compound 0.08 µM) | relative viability (AZD6482 + Olaparib; first compound 0.253 µM) | relative viability (AZD6482 + Olaparib; first compound 0.8 µM) | relative viability (AZD6482 + Olaparib; first compound 2.53 µM) | relative viability (AZD6482 + Olaparib; first compound 8 µM) | relative viability (AZD6482 + Decitabine; first compound 0.08 µM) | relative viability (AZD6482 + Decitabine; first compound 0.253 µM) | relative viability (AZD6482 + Decitabine; first compound 0.8 µM) | relative viability (AZD6482 + Decitabine; first compound 2.53 µM) | relative viability (AZD6482 + Decitabine; first compound 8 µM) | relative viability (AZD6482 + Crizotinib; first compound 0.08 µM) | relative viability (AZD6482 + Crizotinib; first compound 0.253 µM) | relative viability (AZD6482 + Crizotinib; first compound 0.8 µM) | relative viability (AZD6482 + Crizotinib; first compound 2.53 µM) | relative viability (AZD6482 + Crizotinib; first compound 8 µM)
201T | 0.95 | 1.04 | 1.08 | 0.982 | 0.839 | 0.8 | 0.872 | 0.727 | 0.848 | 0.855 | 0.763 | 0.844 | 0.816 | 0.812 | 0.998 | 0.991 | 1.09 | 0.944 | 1.04
A549 | 1.06 | 0.897 | 1.04 | 0.827 | 0.26 | 0.33 | 0.37 | – | 0.315 | 0.27 | 0.12 | 0.209 | – | 0.347 | 0.73 | 0.722 | 0.754 | 0.405 | 0.431
A-427 | 1.07 | 0.977 | 1.05 | 1 | 0.5 | 0.718 | 0.739 | 0.514 | 0.66 | 0.479 | 0.53 | 0.547 | 0.512 | 0.483 | 0.747 | 0.858 | 0.788 | 0.732 | 0.962
ABC-1 | 1.09 | 1.14 | 1.25 | 1.05 | 0.602 | 0.464 | 0.881 | 0.801 | 0.52 | 0.902 | 1.14 | 0.985 | 1.26 | 0.947 | 0.853 | 0.969 | 1.03 | 0.899 | 0.801
CAL-12T | 0.58 | 0.626 | 0.603 | 0.672 | 0.746 | 0.702 | 0.712 | 0.595 | 0.543 | – | – | – | – | – | 0.572 | 0.662 | 0.853 | 0.455 | 0.794
Calu-6 | 1.02 | 0.985 | 1.19 | 0.985 | 0.516 | 0.493 | 0.533 | 0.527 | 0.543 | – | – | – | – | – | 0.701 | 0.741 | 0.796 | 0.639 | 0.782
ChaGo-K-1 | – | – | – | – | 0.399 | 0.436 | 0.42 | 0.431 | 0.4 | 0.502 | 0.494 | 0.489 | 0.481 | 0.534 | 1.11 | – | 0.744 | 1.23 | 1.12
EBC-1 | 0.222 | 0.177 | 0.18 | 0.155 | 0.533 | 0.675 | 0.637 | 0.467 | 0.301 | – | – | – | – | – | 0.19 | 0.154 | 0.212 | 0.216 | 0.2
IA-LM | – | 0.888 | 1.03 | 0.669 | 0.982 | 0.995 | 1.15 | – | 0.759 | – | – | – | – | – | 0.968 | 1.06 | 1.01 | – | 1.08
LCLC-103H | – | – | – | – | 0.677 | 0.745 | 0.648 | 0.543 | 0.569 | 0.597 | 0.682 | 0.677 | 0.716 | 0.519 | 0.909 | 0.994 | 0.911 | 0.847 | 0.699
NCI-H441 | – | – | – | – | 0.604 | 0.525 | 0.541 | – | 0.449 | 0.254 | 0.198 | 0.295 | – | 0.214 | 0.651 | 0.689 | 0.782 | 0.443 | 0.507
NCI-H522 | – | – | – | – | 0.573 | 0.697 | 0.634 | 0.596 | 0.577 | 0.627 | 0.6 | 0.586 | 0.585 | 0.755 | – | – | – | – | –
NCI-H1299 | 0.965 | 0.933 | 0.972 | 0.862 | 0.995 | 1.02 | 1.07 | 0.992 | 0.934 | – | – | – | – | – | 0.956 | 0.946 | 1.04 | 0.942 | 0.989
NCI-H1395 | 0.987 | 1.08 | 1.29 | 0.831 | 0.406 | 0.429 | 0.501 | 0.388 | 0.32 | 0.584 | 0.601 | 0.636 | 0.496 | 0.489 | – | – | – | – | –
NCI-H1563 | 0.913 | 0.982 | 0.81 | 0.734 | – | – | – | – | – | – | – | – | – | – | 0.783 | 0.821 | 0.82 | 0.663 | 0.769
NCI-H1648 | – | – | – | – | 0.575 | 0.823 | 0.715 | – | 0.638 | 0.502 | 0.453 | 0.472 | – | 0.48 | – | – | – | – | –
NCI-H1703 | 0.981 | 0.901 | 1.05 | 0.458 | 0.342 | 0.456 | 0.258 | 0.133 | 0.167 | – | – | – | – | – | 0.583 | 0.505 | 0.396 | 0.245 | 0.343
NCI-H1793 | 0.75 | 0.742 | 0.855 | 0.664 | 0.559 | 0.413 | 0.502 | 0.306 | 0.406 | 0.419 | 0.429 | 0.313 | 0.297 | 0.271 | – | – | – | – | –
NCI-H2228 | 0.959 | 1.34 | 1.23 | 0.757 | 0.494 | 0.546 | 0.569 | 0.466 | 0.569 | – | – | – | – | – | 0.368 | 0.46 | 0.308 | 0.254 | 0.275
NCI-H2342 | – | – | – | – | 0.346 | 0.368 | 0.4 | 0.42 | 0.329 | 0.636 | 0.643 | 0.736 | 0.568 | 0.587 | – | – | – | – | –
SW 900 | – | – | – | – | 0.678 | 0.665 | 0.661 | 0.623 | 0.616 | 0.412 | 0.419 | 0.45 | 0.418 | 0.434 | – | – | – | – | –
